# Measured values as given in PubChem BioAssay (NCI).
# Several values for one entry are separate records, joined by “and”; a condition that tells them apart may be missing. Equal values may be shown once.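 The compound was tested at five concentrations on cells cultured in 96-well plates, with a 48-hour exposure period. GI50: concentration for 50% inhibition of growth. TGI denotes the concentration required for complete inhibition of growth.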
# Key:
# Assay in all cases: growth of human tumour cells (NCI), 48 h
# HOP-62 NSCLC = test system: HOP-62 NSCLC
# UO-31 renal = test system: UO-31 renal
# HOP-92 NSCLC = test system: HOP-92 NSCLC
# KM12 colon = test system: KM12 colon
# OVCAR-3 ovarian = test system: OVCAR-3 ovarian
# NCI-H522 lung = test system: NCI-H522 lung
# A498 renal = test system: A498 renal
# K-562 leukemia = test system: K-562 leukemia
# SR leukemia = test system: SR leukemia
# SF-539 CNS = test system: SF-539 CNS
# SK-MEL-2 melanoma = test system: SK-MEL-2 melanoma
# 786-0 renal = test system: 786-0 renal
# SNB-75 CNS = test system: SNB-75 CNS
# SF-295 CNS = test system: SF-295 CNS
# DU-145 prostate = test system: DU-145 prostate
# SK-OV-3 ovarian = test system: SK-OV-3 ovarian
# TK-10 renal = test system: TK-10 renal
# HOP-18 NSCLC = test system: HOP-18 NSCLC
# IGROV1 ovarian = test system: IGROV1 ovarian
# NCI-H226 lung = test system: NCI-H226 lung
# HT29 colon = test system: HT29 colon
# MALME-3M melanoma = test system: MALME-3M melanoma
# CAKI-1 renal = test system: CAKI-1 renal
# HL-60(TB) leukemia = test system: HL-60(TB) leukemia
# DLD-1 colon = test system: DLD-1 colon
# SK-MEL-5 melanoma = test system: SK-MEL-5 melanoma
# KM20L2 colon = test system: KM20L2 colon
# COLO 205 colon = test system: COLO 205 colon
# HCT-15 colon = test system: HCT-15 colon
# SN12C renal = test system: SN12C renal
# UACC-62 melanoma = test system: UACC-62 melanoma
# ACHN renal = test system: ACHN renal
# OVCAR-5 ovarian = test system: OVCAR-5 ovarian
# RXF 393 renal = test system: RXF 393 renal
# EKVX NSCLC = test system: EKVX NSCLC
# MOLT-4 leukemia = test system: MOLT-4 leukemia
# CCRF-CEM leukemia = test system: CCRF-CEM leukemia
# NCI/ADR-RES ovarian = test system: NCI/ADR-RES ovarian
# HCC-2998 colon = test system: HCC-2998 colon
# OVCAR-8 ovarian = test system: OVCAR-8 ovarian
# SF-268 CNS = test system: SF-268 CNS
# NCI-H460 lung = test system: NCI-H460 lung
# SW-620 colon = test system: SW-620 colon
# BT-549 breast = test system: BT-549 breast
# MDA-MB-435 = test system: MDA-MB-435
# MCF7 breast = test system: MCF7 breast
# T-47D breast = test system: T-47D breast
# MDA-MB-231 breast = test system: MDA-MB-231 breast
# OVCAR-4 ovarian = test system: OVCAR-4 ovarian
# HS 578T breast = test system: HS 578T breast
# A549 NSCLC = test system: A549 NSCLC
# MDA-N = test system: MDA-N
# HCT-116 colon = test system: HCT-116 colon
# NCI-H23 lung = test system: NCI-H23 lung
# RPMI-8226 leukemia = test system: RPMI-8226 leukemia
# UACC-257 melanoma = test system: UACC-257 melanoma
# LOX IMVI melanoma = test system: LOX IMVI melanoma
# SNB-19 CNS = test system: SNB-19 CNS
# U251 CNS = test system: U251 CNS
# SK-MEL-28 melanoma = test system: SK-MEL-28 melanoma
# PC-3 prostate = test system: PC-3 prostate
# M14 melanoma = test system: M14 melanoma
smiles,measurement,setting,value
CCCCC(=O)OC[n+]1ccc2c(C)c3[nH]c4ccccc4c3c(C)c2c1,TGI,HOP-62 NSCLC,2.05 µM
same,TGI,UO-31 renal,3.69 µM
same,TGI,HOP-92 NSCLC,6.44 µM
same,TGI,KM12 colon,2 µM
same,TGI,OVCAR-3 ovarian,2.54 µM
same,TGI,NCI-H522 lung,2.33 µM
same,TGI,A498 renal,2.62 µM
same,TGI,K-562 leukemia,1.63 µM
same,TGI,SR leukemia,2.31 µM
same,TGI,SF-539 CNS,2 µM
same,TGI,SK-MEL-2 melanoma,11.5 µM
same,TGI,786-0 renal,1.62 µM
same,TGI,SNB-75 CNS,2.59 µM
same,TGI,SF-295 CNS,1.97 µM
same,TGI,DU-145 prostate,2.73 µM
same,TGI,SK-OV-3 ovarian,2.64 µM
same,TGI,TK-10 renal,5.01 µM
same,TGI,HOP-18 NSCLC,9.74 µM
same,TGI,IGROV1 ovarian,6.23 µM
same,TGI,NCI-H226 lung,2.06 µM
same,TGI,HT29 colon,2.44 µM
same,TGI,MALME-3M melanoma,2.98 µM
same,TGI,CAKI-1 renal,4.56 µM
same,TGI,HL-60(TB) leukemia,2.93 µM
same,TGI,DLD-1 colon,1.64 µM
same,TGI,SK-MEL-5 melanoma,2.84 µM
same,TGI,KM20L2 colon,2.79 µM
same,TGI,COLO 205 colon,2.22 µM
same,TGI,HCT-15 colon,1.59 µM
same,TGI,SN12C renal,2 µM
same,TGI,UACC-62 melanoma,1.72 µM
same,TGI,ACHN renal,1.81 µM
same,TGI,OVCAR-5 ovarian,1.82 µM
same,TGI,RXF 393 renal,2.52 µM
same,TGI,EKVX NSCLC,3.04 µM
same,TGI,MOLT-4 leukemia,3.01 µM
same,TGI,CCRF-CEM leukemia,4.08 µM
same,TGI,NCI/ADR-RES ovarian,2.93 µM
same,TGI,HCC-2998 colon,0.978 µM
CC[C@@]1(O)C(=O)OCc2c1cc1n(c2=O)Cc2c-1nc1cc3c(cc1c2C)OCO3,GI50,OVCAR-8 ovarian,< 0.0001 µM
same,GI50,SF-268 CNS,0.00108 µM
same,TGI,SF-268 CNS,0.0136 µM
same,GI50,HOP-62 NSCLC,< 0.0001 µM
same,TGI,HOP-62 NSCLC,0.314 µM and 0.238 µM
same,GI50,UO-31 renal,< 0.0001 µM
same,TGI,UO-31 renal,0.0415 µM
same,GI50,NCI-H460 lung,< 0.0001 µM
same,TGI,NCI-H460 lung,0.0868 µM and 0.0135 µM
same,TGI,HOP-92 NSCLC,0.0782 µM
same,GI50,SW-620 colon,< 0.0001 µM
same,TGI,SW-620 colon,> 100 µM
same,GI50,KM12 colon,0.0241 µM
same,TGI,KM12 colon,> 100 µM
same,GI50,OVCAR-3 ovarian,0.0758 µM and 0.0117 µM
same,TGI,OVCAR-3 ovarian,> 100 µM
same,GI50,BT-549 breast,0.0205 µM
same,GI50,MDA-MB-435,0.0016 µM
same,GI50,NCI-H522 lung,0.000159 µM
same,GI50,A498 renal,0.000257 µM
same,TGI,A498 renal,0.0272 µM and 0.0285 µM
same,GI50,K-562 leukemia,0.000488 µM
same,TGI,K-562 leukemia,> 100 µM
same,GI50,MCF7 breast,< 0.0001 µM
same,TGI,MCF7 breast,0.299 µM
same,GI50,SR leukemia,< 0.0001 µM
same,TGI,SR leukemia,0.000207 µM
same,GI50,SF-539 CNS,< 0.0001 µM
same,TGI,SF-539 CNS,0.000149 µM
same,TGI,SK-MEL-2 melanoma,0.0271 µM
same,GI50,T-47D breast,< 0.0001 µM
same,GI50,MDA-MB-231 breast,0.0147 µM
same,TGI,MDA-MB-231 breast,> 100 µM
same,GI50,OVCAR-4 ovarian,0.0244 µM and 0.0174 µM
same,TGI,OVCAR-4 ovarian,> 100 µM
same,GI50,786-0 renal,< 0.0001 µM
same,TGI,786-0 renal,8.15 µM
same,GI50,HS 578T breast,37.4 µM
same,TGI,HS 578T breast,> 100 µM
same,GI50,SNB-75 CNS,0.00123 µM
same,TGI,SNB-75 CNS,0.947 µM
same,GI50,SF-295 CNS,< 0.0001 µM
same,GI50,A549 NSCLC,< 0.0001 µM
same,TGI,A549 NSCLC,0.0737 µM
same,GI50,DU-145 prostate,< 0.0001 µM
same,TGI,DU-145 prostate,> 100 µM
same,GI50,SK-OV-3 ovarian,< 0.0001 µM
same,TGI,SK-OV-3 ovarian,0.25 µM and 0.331 µM
same,GI50,TK-10 renal,0.043 µM and 0.0311 µM
same,TGI,TK-10 renal,3.56 µM
same,GI50,IGROV1 ovarian,0.0351 µM
same,GI50,NCI-H226 lung,< 0.0001 µM
same,TGI,NCI-H226 lung,0.0195 µM
same,TGI,MDA-N,> 100 µM
same,GI50,HT29 colon,< 0.0001 µM
same,TGI,HT29 colon,> 100 µM
same,GI50,HCT-116 colon,0.0181 µM
same,TGI,HCT-116 colon,15.1 µM
same,GI50,MALME-3M melanoma,0.000457 µM
same,TGI,MALME-3M melanoma,3.92 µM
same,GI50,NCI-H23 lung,< 0.0001 µM
same,TGI,NCI-H23 lung,0.105 µM and 0.0116 µM
same,GI50,CAKI-1 renal,< 0.0001 µM
same,TGI,CAKI-1 renal,0.235 µM and 0.122 µM
same,GI50,HL-60(TB) leukemia,< 0.0001 µM
same,GI50,SK-MEL-5 melanoma,< 0.0001 µM
same,TGI,SK-MEL-5 melanoma,0.0559 µM
same,GI50,RPMI-8226 leukemia,< 0.0001 µM
same,TGI,RPMI-8226 leukemia,0.23 µM
same,GI50,COLO 205 colon,0.102 µM
same,TGI,COLO 205 colon,> 100 µM
same,GI50,UACC-257 melanoma,0.0159 µM
same,TGI,UACC-257 melanoma,0.278 µM
same,GI50,HCT-15 colon,0.00936 µM
same,TGI,HCT-15 colon,> 100 µM
same,GI50,LOX IMVI melanoma,< 0.0001 µM
same,TGI,LOX IMVI melanoma,0.0319 µM and 0.0306 µM
same,GI50,SN12C renal,< 0.0001 µM
same,TGI,SN12C renal,27 µM
same,GI50,SNB-19 CNS,0.000473 µM
same,TGI,SNB-19 CNS,0.0131 µM
same,GI50,U251 CNS,< 0.0001 µM
same,GI50,SK-MEL-28 melanoma,0.0395 µM and 0.0765 µM
same,TGI,SK-MEL-28 melanoma,> 100 µM
same,GI50,UACC-62 melanoma,< 0.0001 µM
same,TGI,UACC-62 melanoma,0.0143 µM
same,GI50,ACHN renal,< 0.0001 µM
same,TGI,ACHN renal,0.0601 µM
same,GI50,OVCAR-5 ovarian,0.0694 µM
same,TGI,OVCAR-5 ovarian,0.0379 µM
same,GI50,RXF 393 renal,0.000755 µM
same,TGI,RXF 393 renal,0.141 µM and 0.0175 µM
same,TGI,EKVX NSCLC,0.818 µM
same,GI50,PC-3 prostate,0.0254 µM
same,TGI,PC-3 prostate,> 100 µM
same,GI50,MOLT-4 leukemia,< 0.0001 µM
same,GI50,CCRF-CEM leukemia,< 0.0001 µM
same,GI50,M14 melanoma,< 0.0001 µM
same,TGI,M14 melanoma,1.01 µM
same,GI50,NCI/ADR-RES ovarian,< 0.0001 µM
same,TGI,NCI/ADR-RES ovarian,> 100 µM
same,GI50,HCC-2998 colon,0.00109 µM
same,TGI,HCC-2998 colon,0.0837 µM and 0.141 µM
